Measurements from ChEMBL document CHEMBL3507680, “University of Dundee, Gates Library screen for HepG2 cell viability”.

Test: Human HepG2 cell viability assay in 384 well format
Assay type: toxicity, cell-based
Set-up: dose 125 nL, time 70.5 hour; cytotoxicity at 70.5 h: concentration not given beside the values
Details: HepG2 cells, read-out: Inhibition

Compound | cytotoxicity at 70.5 h [%]
COCCS(=O)(=O)Nc1cc(Cl)ccn1 | 14.3
COCCCN(C)C(=O)c1nnn(-c2ccccc2Cl)c1C | 1.5
O=C(CN(Cc1cccs1)C1CCS(=O)(=O)C1)NC1CCCCC1 (centres undefined) | 26.4
O=C(CN(Cc1cccs1)C1CCS(=O)(=O)C1)NCCc1cccs1 (centres undefined) | -2.26
CC(C)(CNC(=O)C(C)(C)Oc1ccc2c(c1)CCCC2=O)C(N)=O | 0.471
COc1ccccc1NC(=O)c1[nH]nc(C(C)C)c1Br | -3.43
CC(=O)Nc1nc(COc2nc(C)no2)cs1 | 24.6
CSc1ccc(C(=O)N(c2ccc(F)cn2)C2CCOCC2)o1 | 30.2
O=S(=O)(CCc1ccccc1)Nc1cc(Cl)ccn1 | 0.152
COc1ccc2nc(C3CC3)cc(C(=O)NCc3noc(C)n3)c2c1 | -1.37
COc1ccc2nc(C3CC3)cc(C(=O)NCc3ncnn3C)c2c1 | 0.319
Cc1cncc(C(=O)N(c2ccc(F)cn2)C2CCOCC2)c1 | 5.37
CC(NC(=O)N1CCC2(C1)OCCO2)c1cccc(Cl)c1 (centres undefined) | -4.94
O=S1(=O)CCCN(Cc2ccccc2OCC(F)(F)F)CC1 | -8.02
Cc1ccc(O)c(C(=O)NCCS(=O)(=O)Cc2ccccc2)c1 | -5.32
Cc1ccc(C(=O)NCCS(=O)(=O)Cc2ccccc2)c(C)c1 | 1.96
Cc1cccc(C(=O)NCCS(=O)(=O)Cc2ccccc2)c1 | -8.95
CCCn1c(NC(=O)CNC(=O)OCC)nc2ccccc21 | -8.2
COc1ccccc1C1(CNc2cn[nH]c(=O)c2Cl)CCOCC1 | -13.8
O=C(COC1CCCCC1)Nc1ccn(Cc2cccnc2)n1 | -7.64
Cc1nc(C)n(CC2CCCN2c2ccnc(-c3ccccc3)n2)n1 (centres undefined) | -6.3
CCc1nc2n(n1)CC(Nc1nc(C)cc(N(C)C)n1)CC2 (centres undefined) | -6.31
NC(=O)c1ccc(=O)n(Cc2cc(Br)ccc2Cl)n1 | -5.48
COc1ccc(Br)cc1Cn1nc(C(N)=O)ccc1=O | -6.15

Compound | cytotoxicity at 70.5 h [%]
CCn1nnnc1-c1cccc(NC(=O)CCn2cc(C)cn2)c1 | -7.36
CCn1nc2c(cc1=O)CN(CC1CCCCO1)CC2 (centres undefined) | 11.3
CN(CCN(C)S(=O)(=O)CC1CCOCC1)c1ccccc1 | -3.42
O=c1[nH]c(=O)n(CC(O)c2ccc(F)cc2F)cc1Cl (centres undefined) | 0.374
CC1CS(=O)(=O)CCN1Cc1ccccc1N(C)C (centres undefined) | -0.403
COc1ccc(Cn2nc(C(N)=O)ccc2=O)c(Cl)c1 | -3.77
CCOc1cccc(NCc2cnc(N3CCN(C)CC3)nc2)n1 | 3.56
O=C(NC1CCCCC1)c1c(F)cccc1F | 4.08
CCCn1nc2c(cc1=O)CN(CC1CCCCO1)CC2 (centres undefined) | -1.08
CC(=O)N1CCN(c2ccccc2CNc2ccc3[nH]ncc3c2)CC1 | 0.892
CCn1nnnc1-c1cccc(NC(=O)CCOC(C)C)c1 | -7.16
CC(=O)N1CCN(c2ccccc2CNc2cncc(C)c2)CC1 | 4.13
CCn1cc(S(=O)(=O)Nc2ccc3[nH]c(C4CCC4)nc3c2)cn1 | 24.1
CC(C)NC(=O)N1CCCCCC1C1CCN(c2ncccn2)CC1 (centres undefined) | 19.7
CCC(=O)Nc1ccc(F)cc1OC | 14.6
Cc1cc(C(=O)N(C)C2CCS(=O)(=O)C2)c2ccc(F)cc2n1 (centres undefined) | 10.8
CN(Cc1cc(Cl)c2c(c1)OCO2)Cc1cscn1 | 3.03
CCCN1CCC(N(C)C(=O)c2cc(C)nc3cc(F)ccc23)CC1 | -11.9
Cc1cc(N(C)C)nc(N2CCn3c(nnc3C3CC3)C2)n1 | 5.46
CS(=O)(=O)CCCN1CCSCC1c1ccc(Cl)cc1 (centres undefined) | -9.37
Cc1noc(C)c1NC(=O)N1CCC(NC(=O)OC(C)(C)C)CC1 | -5.75
Cc1ccc(C(=O)NS(=O)(=O)c2ccc3c(c2)OCCCO3)o1 | 11.7
CCOc1ncccc1C(=O)NC1CC(=O)N(CC(F)(F)F)C1 (centres undefined) | -6.92
Cc1nc(CN2CCCC2C(=O)OCc2ccccc2)oc1C (centres undefined) | -10.3

Compound | cytotoxicity at 70.5 h [%]
CC(C)Oc1ccccc1C(=O)NC1CC(=O)N(CC(F)(F)F)C1 (centres undefined) | -22.6
COC(=O)CCN(CC1CCCO1)C(=O)Cc1ccc(OC)c(OC)c1 (centres undefined) | -5.89
O=C(NCC1(O)CCSCC1)c1nccc2ccccc12 | 13.5
Cc1cc(NC(=O)CNc2cccc(OC(F)F)c2C)n(C)n1 | -6.65
CNC(=O)c1c(C)cccc1NCC(=O)Nc1cc(C)nn1C | 8.71
C/C=C(/C)C(=O)NS(=O)(=O)c1ccc(Cl)cn1 | -0.512
Cc1oc(CNC(=O)Cc2ccccc2Cl)cc1C(=O)O | -7.56
C/C=C(/C)C(=O)NS(=O)(=O)c1ccc(C(F)(F)F)cn1 | -18.7
CSc1cc(CNC(=O)CCOc2ccccc2C)ccn1 | -7.07
CSC1(CNC(=O)c2ccn(-c3ccccc3F)n2)CCOCC1 | -8.53
Cc1cc(C(C)(O)CNC(=O)CCn2ccnc2C(C)C)c(C)o1 (centres undefined) | 9.42
OC1(CN2CCCC(Cn3cncn3)C2)CCCCC1 (centres undefined) | 6.45
CCN1CC(COC(=O)c2ccccc2Cl)CC1=O (centres undefined) | 7.47
O=C(c1ccc(NCc2cccc(F)c2)cc1)N1CCCC1 | 1.69
c1ncn(CC2CCCN(CC3CCCCC3)C2)n1 (centres undefined) | -7.32
CC1(C)CN(C(CNS(C)(=O)=O)c2ccc(Cl)cc2)CCO1 (centres undefined) | -5.58
COCC(=O)NC(C)c1sc(-c2ccccc2F)nc1C (centres undefined) | -2.79
CC(C)n1cnnc1CNC(=O)c1cnn(-c2ccccc2)c1 | 10
CCOc1ccc(Cl)c(C(=O)N2CCCC(c3ccn[nH]3)C2)n1 (centres undefined) | -2.59
O=C(c1cccc(NCc2cccc(F)c2)c1)N1CCC(O)CC1 | 10.8
O=C(c1ccc(NCc2cccc(F)c2)cc1)N1CCC(CO)CC1 | 2.87
Cc1nc(C)c(C(=O)Nc2ccc(-c3nnc(N(C)C)o3)cc2)o1 | -4.93
CC(CS(C)(=O)=O)NC(=O)N1CC2(CCCC2)c2ccccc21 (centres undefined) | -2.3
NC(=O)c1ccc(NC(=O)c2ccncc2F)cn1 | 10.3

Compound | cytotoxicity at 70.5 h [%]
CC(C)NC(=O)N1CCC[C@H]1C(=O)NCCCc1cnn(C)c1 | -4.04
O=C(NCC1(c2cccs2)CCCCC1)N1CCOC(CO)C1 (centres undefined) | -1.73
Cc1ccc(C(C)(O)CNC(=O)CCn2ccnc2C(C)C)o1 (centres undefined) | -2.97
CC(=O)N1CCCN(C(=O)NCC2(c3cccs3)CCCC2)CC1 | -4.55
CCN(CCCc1ccccc1C)S(C)(=O)=O | -3.45
O=C(Nc1ccccc1)C1CCCN(C(=O)Cn2cncn2)C1 (centres undefined) | -0.859
Cc1csc(N(C)C(=O)C2CC(=O)N(CCc3ccccc3)C2)n1 (centres undefined) | 4.67
Cc1csc(N(C)C(=O)C2CC(=O)N(c3ccccc3F)C2)n1 (centres undefined) | -0.144
COCCn1cc(NC(=O)NC(C)c2ccc(Cl)s2)cn1 (centres undefined) | -3.34
COc1ncccc1NC(=O)N1CCOCC1C (centres undefined) | 4.15
CCOc1cccc2c1OCC(C(=O)NC(C)Cn1cccn1)=C2 (centres undefined) | 16.6
COc1ccc(Oc2ncccc2NC(=O)N2CCOCC2C)cc1 (centres undefined) | -1.92
COc1ccc(Oc2ncccc2NC(=O)N2CC[C@H](O)C2)cc1 | -1.8
Cc1cc(C(=O)N2CCCC2CN2CCCC2)no1 (centres undefined) | 12.9
COC(=O)C(CNC(=O)Nc1cn[nH]c1)Cc1cccc(C)c1 (centres undefined) | -0.383
Cc1ccc(CN(CC(=O)NC2CCOCC2)c2ccc(F)cc2)o1 | 1.79
CC(Nc1nc2c(cnn2C)c(=O)[nH]1)c1ccccn1 (centres undefined) | 13
COc1ccc(NC(=O)N2CCC(c3noc(C)n3)CC2)cc1C | 1.97
Cc1cc(NC(N)=O)ccc1OCC(F)(F)F | -2.1
CC(Cn1cncn1)NC(=O)NCC(C)(C)c1ccc(F)cc1 (centres undefined) | 1.47
CCn1nc2c(cc1=O)CN(Cc1nc(-c3ccoc3)no1)CC2 | 19.1
CN(C(=O)c1ccncc1)c1ccccc1S(C)(=O)=O | -2.3
COc1ccc(NC(=O)N2CCC(c3nnc[nH]3)CC2)cc1C | -3.69
CCOc1ncccc1NC(=O)N1CCOCC1C (centres undefined) | -5.63

Compound | cytotoxicity at 70.5 h [%]
Cc1cc(CN(C)C(=O)NC(C)Cc2ccco2)no1 (centres undefined) | -3.4
CN(C)CCN(Cc1cccnc1)C(=O)c1ccn(-c2ccccc2)n1 | -3.54
CCc1noc(C(C)N(C)Cc2cc(Br)ccc2OC)n1 (centres undefined) | -15.2
CCCC(NC(=O)c1ccc(C)cc1C)c1nnn[nH]1 (centres undefined) | 0.32
CCCC(NC(=O)c1cc(C)c(F)cc1F)c1nnn[nH]1 (centres undefined) | -2.37
CCC1CCCCN1CCNC(=O)N1CCN(Cc2ccon2)CC1 (centres undefined) | -2.53
CN1CCC(CCNC(=O)N2CCN(Cc3ccon3)CC2)CC1 | 14.9
COc1ccc(CNC(C)c2ccc(Cl)cc2)c(OC)c1OC (centres undefined) | 13.3
CCCC(NC(=O)c1cc(C)ccc1O)c1nnn[nH]1 (centres undefined) | -10.4
CCC(C)Sc1nncn1-c1ccc(OC)nc1 (centres undefined) | 5.95
COc1ccc(CNC(C)c2ccc(Cl)c(Cl)c2)c(OC)c1OC (centres undefined) | 5.68
CCOCCCNC(=O)Cc1cccc(F)c1 | 1.71
O=C(NCCNS(=O)(=O)c1ccc2c(c1)CCC2)c1ccccc1 | -1.96
Cc1ccc(-c2cnc(CCC(=O)NCCN3CCOCC3)o2)cc1C | 2.52
O=C(C1CC(=O)N(c2ccccc2Br)C1)N1CCCCCC1 (centres undefined) | 11.2
CC(C)(C)OC(=O)NC(C)(C)c1noc(CSc2nncs2)n1 | 25.7
CCS(=O)(=O)c1ccc(N2CCC(NC(=O)CC3CCCC3)CC2)cc1 | -9.91
Cn1c(C(=O)N2CCC(C3OCCO3)CC2)c(Cl)c2ccccc21 | -9.46
COc1cc(CNC(=O)C(C)SC)cc(Br)c1OC (centres undefined) | -8.14
COc1ccc(NC(=O)Cc2c(C)nc3c(c2C)c(=O)[nH]n3C)cn1 | -4.63
CCC(C)C(=O)NCc1cc(Br)c(OC)c(OC)c1 (centres undefined) | -6.76
COc1ncccc1NC(=O)N1CCC(C(=O)NC(C)C)CC1 | -5.13
COc1ncccc1NC(=O)NCC1CC1 | -3.58
